Tests used:
RIF tumors [1] = test: Tumor uptake by in vivo reflectance spectroscopy; design: species or system C3H mice
Description: The tumor uptake of conjugate 5 was determined by in vivo reflectance spectroscopy. For these experiments, C3H mice bearing RIF tumors were injected with 5.0 μmole/kg of conjugate 5 and the in vivo absorption spectra were taken at various time intervals.

RIF tumors [2] = test: Photosensitizing efficiency (photodynamic therapy of implanted tumors); format: in vivo, C3H mice; conditions: light 135 J/cm^2 at 665 nm, 24 hours post injection, FIG. 7
Description: To measure photosensitizing efficiency, RIF tumors were implanted subcutaneously into axilla of 5-7 week old female C3H mice. When tumors grew to about […] in size, conjugate 5 was injected at variable doses (0.5, 1.0, 1.5, and 2.5 μmole/kg) The tumors were treated with light at an energy of 135 J/cm^2 at a wavelength of 665 nm (in vivo absorption band for HPPH) at 24 hours post injection and the mice were observed daily. From the results summarized in FIG. 7, it can be seen that conjugate 5 produced 100% tumor cure at a dose of 2.5 μmole/kg (the tumor imaging dose).

RIF tumor cells = test: Site of intracellular localization compared with a mitochondrial probe; format: cell-based; conditions: 24 hours incubation; compared with MITO-TRACKER green (400 nM); FIG. 8
Source text: In general, porphyrin based compounds have shown diverse patterns of localization at least somewhat dependent upon structure, lipophilicity and charge.

## CCCCCCOC(C)c1c(C)c2cc3nc(c4c5[nH]c(cc6nc(cc1[nH]2)C(C)=C6CC)c(C)c5C(=O)C4)C(CCC(=O)Nc1ccc(SC2=C(C=CC4=[N+](CCCCS(=O)(=O)[O-])c5ccc6ccccc6c5C4(C)C)CCCC2=CC=C2N(CCCCS(=O)(=O)[O-])c4ccc5ccccc5c4C2(C)C)cc1)C3C.[Na+] (stereo not shown) [conjugate 5]
RIF tumors [1]; 5.0 μmole/kg injected, 24 hours post injection, FIG. 3
  uptake in tumor relative to skin: more significant uptake in tumor than skin
RIF tumors [2]; 2.5 μmole/kg
  tumor cure: 100%
RIF tumors [2]; doses below 2.5 μmole/kg (0.5, 1.0, 1.5)
  photosensitizing efficacy at lower doses: limited photosensitizing efficacy
RIF tumor cells
  site of localization in cells: localizes in mitochondria

## CC1(C)C(=CC=C2CCCC(C=CC3=[N+](CCCCS(=O)(=O)[O-])c4ccc5ccccc5c4C3(C)C)=C2Cl)N(CCCCS(=O)(=O)[O-])c2ccc3ccccc3c21.[Na+] [indocyanine green analog (1), indocyanine green 820 nm analog CAS172616-80-7]
RIF tumors [1]; 5.0 μmole/kg, dye alone, C3H mouse bearing tumor
  uptake in skin relative to tumor, dye alone: higher uptake in skin than in tumor
RIF tumors [1]; 5.0 μmole/kg, dye alone, FIG. 5
  tumor uptake compared with HPPH-ICG conjugate 5: significantly lower tumor uptake
RIF tumors [1]; 5.0 μmole/kg, dye alone, found to clear rapidly
  time post injection at which cleared from both tumor and skin: 4 to 5 h
